Test results reported in patent US10584108B2, “Therapeutic compounds and methods of use thereof” (KUALITY HERBCEUTICS LLC, priority 2015, dated 2020).

Experiments:
[1] = test system: NNK-induced O^6-mG in A/J mouse lung tissues; test: Test A: in vivo effect on NNK-induced O^6-mG in A/J mouse lung tissues; conditions: A/J mice, compound 0.2 mg/g of diet for seven days, NNK 100 mg/kg i.p., lung tissue four hours after NNK
Description: The ability of a compound of the invention to effect NNK-induced O^6-mG in A/J mouse lung tissues may be determined using pharmacological models which are well known to the art, or using Test A described below.
General Procedure of the In Vivo Effect on NNK-induced O^6-mG in A/J Mouse Lung Tissues
Five-six week old A/J mice were purchased from Jackson Lab. After one week of acclimatization, mice were randomized into different groups. Mice were given to the AIN-G powdered diet supplemented with the corresponding compound at a dose of 0.2 mg/g of diet for seven days. Subsequently, with the exception of mice in the negative control groups, animals were given NNK (100 mg/kg of bodyweight at the beginning of Day 7 via i.p. injection) (control mice will be given saline). Four hours NNK administration, mice in each group were euthanized with serum, urine, lung and liver tissues collected. O^6-mG DNA adducts in the lung tissues were quantified following established procedures (1, 2). The relative amount of reduction was calculated as the percentage of reduction relative the amount of O^6-mG in the NNK-treated positive control group.

[2] = test system: CYP1A1 mRNA in Hepe1c1c7 cells; test: Test B: in vitro effect on CYP1A1 activation (CYP1A1 mRNA by q-RT PCR); format: cell-based; conditions: 5 μM in 0.5% DMSO, ratio treated to untreated, normalized to GAPDH mRNA
Procedure: The ability of a compound of the invention to effect CYP1A1 activation may be determined using pharmacological models which are well known to the art, or using Test B described below.
General Procedures of the In Vitro Effect on CYP1A1 Activation
Hepe1c1c7 cells were cultured under standard conditions and seeded in 6-well plate. After complete attachment (12-24 hours after seeding), the cells were treated with the corresponding compounds at the concentration of 5 μM, supplemented in 0.5% DMSO. Cells were trypsinized and pelleted. mRNAs were isolated. The relative amount of CYP1A1 mRNA were quantified via q-RT PCR and normalized to the amount of GAPDH mRNA from the same sample. Induction of CYP1A1 mRNA is defined as the ratio of CYP1A1 mRNA between treated samples to the untreated sample.

[3] = molecular target: T1, aryl hydrocarbon receptors (Homo sapiens, UniProt P35869); conditions: background statement, literature; cited from earlier work
T1 sequence (P35869 11-848): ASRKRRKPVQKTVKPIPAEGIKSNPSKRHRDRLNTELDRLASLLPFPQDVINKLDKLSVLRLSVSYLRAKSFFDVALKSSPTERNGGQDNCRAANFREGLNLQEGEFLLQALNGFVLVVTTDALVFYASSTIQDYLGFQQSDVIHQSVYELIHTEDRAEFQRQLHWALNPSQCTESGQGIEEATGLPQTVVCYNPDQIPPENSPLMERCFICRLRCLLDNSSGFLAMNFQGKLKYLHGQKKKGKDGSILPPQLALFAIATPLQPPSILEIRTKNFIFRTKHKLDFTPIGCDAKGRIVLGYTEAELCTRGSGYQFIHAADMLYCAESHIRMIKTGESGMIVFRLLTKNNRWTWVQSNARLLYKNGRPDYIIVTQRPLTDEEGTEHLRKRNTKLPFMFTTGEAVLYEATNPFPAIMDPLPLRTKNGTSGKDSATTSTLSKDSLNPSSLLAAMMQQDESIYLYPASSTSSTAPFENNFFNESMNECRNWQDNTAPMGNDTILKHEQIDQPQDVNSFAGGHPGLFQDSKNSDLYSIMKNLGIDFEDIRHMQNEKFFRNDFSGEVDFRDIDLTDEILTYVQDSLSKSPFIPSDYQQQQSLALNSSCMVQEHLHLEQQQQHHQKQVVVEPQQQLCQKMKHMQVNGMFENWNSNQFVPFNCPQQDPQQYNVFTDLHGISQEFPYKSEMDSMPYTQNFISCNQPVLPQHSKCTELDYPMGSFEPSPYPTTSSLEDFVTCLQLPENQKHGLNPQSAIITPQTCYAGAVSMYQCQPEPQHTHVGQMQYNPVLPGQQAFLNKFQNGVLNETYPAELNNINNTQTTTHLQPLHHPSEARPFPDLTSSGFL

[4] = test system: NNK-induced DNA damage (O^6-mG); conditions: background statement, literature; cited from earlier work
[5] = test system: NNK-induced lung tumorigenesis; conditions: background statement, literature; cited from earlier work

Question: Which “Relative amount of reduction in O^6-mG (mean ± SD) % in comparison to NNK-treated control” value [1] does the source give for `COC1=CC(=O)CC(CCc2ccc3c(c2)CCC3)C1` (stereo not drawn) here?
Answer: 11.8 ± 23.1%

Question: For `O=C1C=CCC(CCc2ccc3c(c2)OCO3)O1` (stereo not drawn), which “Induction of CYP1A1 mRNA” value [2] is on record?
Answer: 5.94 ± 0.22

Question: And the “Relative amount of reduction in O^6-mG (mean ± SD) % in comparison to NNK-treated control” value [1]?
Answer: 35.2 ± 31.8%

Question: With `COC1=CC(=O)OC(CCc2ccc3c(c2)OCO3)C1` (stereo not drawn) as the compound, how does the “Relative amount of reduction in O^6-mG (mean ± SD) % in comparison to NNK-treated control” value [1] read?
Answer: 72.7 ± 6.6%

Question: With `COC1=CC(=O)OC(CCc2ccc3c(c2)OCO3)C1C` (stereo not drawn) as the compound, how does the “Induction of CYP1A1 mRNA” value [2] read?
Answer: 2.16 ± 0.11

Question: Which “Induction of CYP1A1 mRNA” value [2] does the source give for `COC1=CC(=O)OC(CCc2ccc(OC)c(O)c2)C1` (stereo not drawn) here?
Answer: 5.61 ± 0.40

Question: What about the “Relative amount of reduction in O^6-mG (mean ± SD) % in comparison to NNK-treated control” value [1] of the same compound?
Answer: −2.6 ± 14.7%

Question: Which results are given for `COC1=CC(=O)OC(CCc2ccc3c(c2)CCC3)C1` (stereo not drawn)?
Answer: Induction of CYP1A1 mRNA [2]: 0.79 ± 0.02; Relative amount of reduction in O^6-mG (mean ± SD) % in comparison to NNK-treated control [1]: 29.7 ± 16.3%

Question: Which results are given for `COC1=CC(=O)OC(/C=C/c2ccc3c(c2)OCO3)C1` (stereo not drawn)?
Answer: Induction of CYP1A1 mRNA [2]: 0.26 ± 0.01; Relative amount of reduction in O^6-mG (mean ± SD) % in comparison to NNK-treated control [1]: 54.6 ± 1.2%

Question: Which “Relative amount of reduction in O^6-mG (mean ± SD) % in comparison to NNK-treated control” value [1] does the source give for `COC1=CC(=O)OC(/C=C/c2ccc3c(c2)OCCO3)C1` (stereo not drawn) [drawing 65] here?
Answer: 5.2 ± 13.0%

Question: For `COC1=CC(=O)OC(/C=C/c2ccc3c(c2)OCCO3)C1` (stereo not drawn) [drawing 40], which “Induction of CYP1A1 mRNA” value [2] is on record?
Answer: 1.15 ± 0.02

Question: And the “Relative amount of reduction in O^6-mG (mean ± SD) % in comparison to NNK-treated control” value [1]?
Answer: 5.2 ± 13.0%

Question: With `COC1=CC(=O)O[C@H](CCc2ccc3c(c2)OCO3)C1` as the compound, how does the “Relative amount of reduction in O^6-mG (mean ± SD) % in comparison to NNK-treated control” value [1] read?
Answer: 79.6 ± 1.5%

Question: With `COC1=CC(=O)O[C@@H](CCc2ccc3c(c2)OCO3)C1` [drawing 26] as the compound, how does the “Induction of CYP1A1 mRNA” value [2] read?
Answer: 1.88 ± 0.07

Question: And the “Relative amount of reduction in O^6-mG (mean ± SD) % in comparison to NNK-treated control” value [1]?
Answer: 76.9 ± 2.6%

Question: For `COC1=CC(=O)O[C@@H](CCc2ccc3c(c2)OCO3)C1` [dihydromethysticin], which “Activation of aryl hydrocarbon receptors” value [3] is on record?
Answer: activate

Question: For `COC1=CC(=O)OC(CCc2ccc3c(c2)OCCO3)C1` (stereo not drawn), which “Induction of CYP1A1 mRNA” value [2] is on record?
Answer: 3.73 ± 0.26

Question: What about the “Relative amount of reduction in O^6-mG (mean ± SD) % in comparison to NNK-treated control” value [1] of the same compound?
Answer: 3.24 ± 13.4%

Question: For `COC1=CC(=O)O[C@@H](CCc2ccc3c(c2)OCO3)C1` [(+)-Dihydromethysticin], which “Inhibition of NNK-induced O^6-mG DNA damage” value [4] is on record?
Answer: can be inhibited

Question: What about the “Block of NNK-induced lung tumorigenesis” value [5] of the same compound?
Answer: effectively block

Question: With `O=C1C=C(O)CC(CCc2ccc3c(c2)OCO3)O1` (stereo not drawn) as the compound, how does the “Induction of CYP1A1 mRNA” value [2] read?
Answer: 1.20 ± 0.1

Question: And the “Relative amount of reduction in O^6-mG (mean ± SD) % in comparison to NNK-treated control” value [1]?
Answer: 55.9 ± 19.7%

Question: Which results are given for `COC1=CC(=O)OC(C)(CCc2ccc3c(c2)OCO3)C1` (stereo not drawn)?
Answer: Induction of CYP1A1 mRNA [2]: 2.49 ± 0.08; Relative amount of reduction in O^6-mG (mean ± SD) % in comparison to NNK-treated control [1]: 56.2 ± 8.1%

Question: With `COC1=C(C)C(=O)OC(CCc2ccc3c(c2)OCO3)C1` (stereo not drawn) as the compound, how does the “Induction of CYP1A1 mRNA” value [2] read?
Answer: 0.59 ± 0.04

Question: And the “Relative amount of reduction in O^6-mG (mean ± SD) % in comparison to NNK-treated control” value [1]?
Answer: 65.3 ± 5.8%

Question: With `COC1=CC(=O)CC(CCc2ccc3c(c2)OCO3)C1` (stereo not drawn) as the compound, how does the “Induction of CYP1A1 mRNA” value [2] read?
Answer: 5.58 ± 0.55

Question: And the “Relative amount of reduction in O^6-mG (mean ± SD) % in comparison to NNK-treated control” value [1]?
Answer: 63.7 ± 21.9%
